Read-outs that look alike come from different tables or passages of the source.
What was measured:
RARβ2 promoter = experiment: Methylation specific PCR for the RARβ gene; assay type: cell-based; conditions: 16 and 24 hrs
Method: FIG. 2: a) Methylation specific PCR for the RARβ gene after 16 and 24 hrs of treatment with the indicated compounds; b) Methylation specific PCR for the p16 gene after 24 hrs of the indicated treatments. Samples are representative of real duplicates; c) p16 expression levels in U937 cells after 24 hrs with the indicated treatments; d) DNMT enzymatic in vitro assay carried out with 1.5 and 50 μM of the indicated compounds;
Cells were resuspended into 150 μl of TE (Tris 10 mM—EDTA 1 mM). 1.5 mL of lysis buffer (10 mM Tris pH 8.0—0.1 mM EDTA pH 8.0—0.5% SDS—20 μg/ml Rnase Dnase-free) were added, and after an incubation time of 1 h at 37° C., a second incubation at 56° C. with proteinase K at 100 μg/ml final concentration was performed over night. Proteins were removed by phenol-chloroform extraction. The genomic DNA was then precipitated with 0.2 vol. of 10M ammonium acetate and 2 vol. ethanol, and centrifuged at 13000 rpm for 5 min. The DNA pellet was washed with 70% ethanol, air dried and resuspended in nuclease free water at 4° C. on rocking table. The concentration was measured at 260 nm. […]
20 μg of genomic DNA (or in vitro methylated DNA) were mixed with 5.5 μl of 3M NaOH, the volume was adjusted to 55.5 μl with filtered water. […] The PCR product (10 μl+5 μl loading dye) was analyzed on 1.5% agarose gel.

histone H3, H3K56 = experiment: Post-translational modifications on histone proteins (mass spectrometry, SILAC); assay type: cell-based, human; conditions: U937 (and other) cells, 24 h, 5 μM
Method: U937 cells were grown in RPMI medium in the presence of lysine and arginine (‘light’) or istope versions, Arg10 and Lys8 (‘heavy’). […]. As controls, cell grown in heavy medium were treated for 24 h with DMSO. Light and heavy cells were 7.5×10^6 cells harvest and mixed in 1:1 ratio (total 15×10^6 cells). The cells were washed twice with PBS and the cell pellet was stored at −80° C.
Cells were resuspended in 750 μl Triton Extraction Buffer (TEB: PBS containing 0.5% Triton X 100 (v/v), 2 mM phenylmethylsulfonyl fluoride (PMSF) and 0.02% (w/v) NaN3) and lysed on ice for 10 min with gentle stirring. The lysate was centrifuged for 10 min at 6000 rpm and the supernatant discarded. The pellet was washed with 375 μl of TEB and peletted by centrifugation as before. Pellet is resuspended in 20 μl 250 mM HCl and acid extraction of the histones was performed o/n at 4° C.
Extracted histones were cleared by centrifugation and separated on a 15% acrylamide gel and the gel was stained with Coomassie. The gel region containing the histones was sliced, reduced and alkylated in gel. Proteins were digested o/n with trypsin (Promega). Peptides were eluted from the gel with trifluoroacetic acid. […]
U937 cells were treated with UVI5008 for 24 hrs and histones were acid extracted. Proteins were digested with trypsin and the peptides were analysed using a nanoLC that is online with a FT-ICR mass spectrometer. […]

[1] = system: prostate cancer cells (LnCap); experiment: Anti-proliferative and apoptogenic action in prostate cancer cells; assay type: cell-based; conditions: data not shown
[2] = system: HCT-116 colon carcinoma cells xenografted in immunoincompetent mice; conditions: for Normalised tumour weight: mean of n = 10
DU-145 cells = experiment: MTT cytotoxicity assay, DU-145; conditions: read-out: IC50 values, MTT cytotoxicity assay; DU-145, 48 h
TRAIL = TRAIL expression (RT-PCR and ELISA) in U937 cells; assay type: cell-based, human; conditions: protein after 24 hrs
Method: FIG. 5: a) Analysis of the histone H3 acetylation levels on the TRAIL promoter regulatory region and on the TRAIL gene first intron carried out Chip and qPCR in U937 cells after the indicated time course with UVI5008; the ‘NoAb’ represents the negative control; b) TRAIL mRNA expression after the indicated times of incubation with UVI5008; G6PDH levels have been used for equal loading; c) TRAIL protein expression levels measured by ELISA assay in U937 cells after 24 hrs treatment with UVI5008.

O=C(NCCSSCCNC(=O)C(Cc1c[nH]c2ccc(Br)cc12)=NO)C(Cc1c[nH]c2ccc(Br)cc12)=NO [UVI5008] was tested, and the “unmethylated RARβ2 (MSP)” value (RARβ2 promoter) was “significant increase”, the “post-translational modifications on histone proteins” value (histone H3, H3K56) was “identification of a novel acetylated lysine residue in histone H3, H3K56” and the “anti-proliferative and apoptogenic action” value [1] was “confirmed”. The “Percent Growth Inhibition after 22 days” value ([2]; 40 mg/kg i.p. every second day) was 56 ± 7%, the “animals with signs of toxicity (accumulation of intra peritoneal fluid)” value ([2]; 40 mg/kg i.p. every second day) was 3 animals out of 10 and the Normalised tumour weight ([2]; day 1, 40 mg/kg i.p. every second day) was 100 ± 21.5 mg. The Normalised tumour weight ([2]; day 4, 40 mg/kg i.p. every second day) was 180.55 ± 43 mg, the Normalised tumour weight ([2]; day 12, 40 mg/kg i.p. every second day) was 548.73 ± 109.8 mg and the Normalised tumour weight ([2]; day 17, 40 mg/kg i.p. every second day) was 915.28 ± 196.8 mg. The Normalised tumour weight ([2]; day 22, 40 mg/kg i.p. every second day) was 1684.79 ± 262.1 mg, the “anti tumoral activity compared with the reference compounds” value ([2]; each compound at its MTD) was “greater anti tumoral activity with respect to SAHA and MS-275” and the IC50 (DU-145 cells) was 2400 ± 300 nM. For the same molecule, the “TRAIL expression at mRNA and protein levels” value (TRAIL) was “increased expression”.
